Data reported in patent US10005769B2, “2,3-dihydrobenzofuran-5YL compounds as DYRK kinase inhibitors” (4SC DISCOVERY GMBH, priority 2013, dated 2018).

Key:
DYRK1B = DYRK1B (Homo sapiens (Human), UniProt Q9Y463); experiment: DYRK1B Kinase Assay (33P ATP, DYRKtide substrate, Reaction Biology Corp.); assay type: biochemical; conditions: 0.3 nM DYRK1B, 20 μM DYRKtide, 10 μM ATP, 25° C., 120 min
Description: The assay was carried out by Reaction Biology Corp., […], Pa., USA according to specifications by Reaction Biology Corp., as detailed herein below and further described in Anastassiadis et al., Nature Biotechnology, 29 (2011) 1039-1045. The substrate DYRKtide (synthetic peptide RRRFRPASPLRGPPK) was dissolved in freshly prepared Base Reaction Buffer (20 mM Hepes (pH 7.5), 10 mM MgCl2, 1 mM EGTA, 0.02% Brij35, 0.02 mg/ml BSA, 0.1 mM Na3VO4, 2 mM DTT, 1% DMSO) at a concentration of 20 μM. DYRK1B was added to the substrate solution in a concentration of 0.3 nM and gently mixed. Dilution series of the compounds according to the present invention in DMSO were prepared. Each dilution was added to a batch of the above reaction mix, followed 20 min later by addition of a mixture of ATP and ^33P ATP (specific activity 0.01 μCi/μl final) to a final concentration of 10 μM. Reactions were carried out at 25° C. for 120 min, followed by spotting the reactions onto P81 ion exchange filter paper. Unbound phosphate was removed by extensive washing of the filters in 0.75% phosphoric acid. […] IC50 values and curve fits were obtained using Prism (Graph Pad Software). DYRK1B used in the above assays are further described in the below table: [table] Exemplary compound dilution series, final concentrations of compound in the assay vessel; the individual concentrations and the range of concentrations covered by the dilution series may differ for each compound, as long as enough data points are obtained to determine the compound's IC50: DYRK 1[…].

[1] = test system: Hedgehog signaling pathway (Gli Reporter - NIH3T3 cell line); experiment: Hedgehog Reporter Assay (Gli-Reporter, luciferase, mSHH stimulated); assay type: cell-based, murine; conditions: Mus musculus; Gli Reporter NIH3T3 cells, 1 μg/ml mSHH, 24 h
Description: In order to investigate the potency of test compounds to inhibit the Hedgehog signaling pathway, a Gli-Reporter assay was performed. The “Gli Reporter-NIH3T3” cell line contains the firefly luciferase gene under the control of Gli responsive elements stably integrated into murine NIH3T3 cells (cells purchased from AMS Biotechnology ltd., 184 Milton Park, Abingdon OX14 4SE, U.K.). The luciferase expression correlates with activation of the hedgehog signaling pathway. This cell line is validated for its response to stimulation with murine Sonic Hedgehog and to treatment with inhibitors of the hedgehog signaling pathway. A multiplexed viability assay was used to discriminate inhibition on the pathway activity from cell toxicity. Growth Medium: DMEM (Dulbecco's Modified Eagle Medium); 10% Fetal Calf Serum; 1% Penicillin/Streptomycin; 500 μg/ml Geneticin (G418 Stock 50 mg/ml). Assay Medium: Opti-MEM® Reduced Serum Medium; 0.5% Calf Serum; 1% non-essential amino acids; 1 mM Na-pyruvate; 10 mM HEPES; 1% Penicillin/Streptomycin. 25,000 cells per well were seeded into a white 96 well plate in 100 μl growth medium and incubated over night at 37° C. and 5% CO2. After removing the supernatant the test compounds and controls were added in different concentrations in a final volume of 45 μl and incubated for 1 h at 37° C. and 5% CO2. For the stimulation of the Hedgehog pathway 5 μl of 10 μg/ml concentrated murine SHH (or mSHH; murine sonic hedgehog protein) was added to the cells. A final concentration of 1 μg/ml mSHH and 0.1% DMSO was reached per well. After incubation for 24 h at 37° C. the cells were investigated for viability and reporter activity. Viability: For the determination of the viability of the treated cells the CellTiter-FluorTM Kit from Promega comprising the fluorogenic, cell-permeant peptide substrate ([…]-aminofluorocoumarin GF-AFC was used. Roughly, only proteases of viable cells are able to cleave the GF-AFC. By this cleavage the fluorescent AFC is set free and can be detected in a fluorescence reader. For this assay 10 μl of GF-AFC substrate (CellTiter-FluorTM, Promega #G6082) was diluted in 2 ml assay buffer from the CellTiter-FluorTM Kit and 10 μl of this dilution was added per well to the cells and incubated for 30 min at 37° C. The fluorescence was measured with an excitation of 380-400 nm and an emission of 505 nm. Reporter activity: The firefly luciferase reporter activity was detected with the ONE-GloTM Luciferase Assay System from Promega. For this assay 50 μl ONE-Glo luciferase reagent (Promega #E6120, contains cell lysis buffer and luciferin) was added to each well and incubated at room temperature for 5 min. Luminescence was detected in a plate reader and served as a measure for reporter activity.

[2] = test system: L3.6pl human metastatic pancreatic adenocarcinoma cells; experiment: Xenograft assay with L3.6pl cancer cells; assay type: in vivo, Foxn1nu/nu nude mice; conditions: 100 mg/kg/day p.o. daily
Description: The x-axis reflects the time [in days], while the y-axis reflects the tumor volume [in mm^3]. A xenograft assay with L3.6pl cancer cells was prepared as follows: 1×10^5 L3.6pl (Bruns et al., 1999) human metastatic pancreatic adenocarcinoma cells in 25% Matrigel (BD Biosciences, NJ, USA) were injected subcutaneously into the lower flanks of Foxn1nu/nu nude mice (Charles River Laboratories, USA). The compound of example 5 was administered p.o. daily with 100 mg/kg/day, dissolved in a mixture of 20% Glycofurol 75, 20% Oleic acid and 60% Olive oil; administration was started at the same day of injection of tumor cells. As a negative control, separate aminals were administered solvent vehicle without active compound. The tumor volume was measured with a caliper and calculated according to the formula [4/3×π×(length/2)×(width/2)×(height/2). Results are shown in FIG. 1, the p value was <0.01.

DYRK1B, sequence (Q9Y463 whole entry): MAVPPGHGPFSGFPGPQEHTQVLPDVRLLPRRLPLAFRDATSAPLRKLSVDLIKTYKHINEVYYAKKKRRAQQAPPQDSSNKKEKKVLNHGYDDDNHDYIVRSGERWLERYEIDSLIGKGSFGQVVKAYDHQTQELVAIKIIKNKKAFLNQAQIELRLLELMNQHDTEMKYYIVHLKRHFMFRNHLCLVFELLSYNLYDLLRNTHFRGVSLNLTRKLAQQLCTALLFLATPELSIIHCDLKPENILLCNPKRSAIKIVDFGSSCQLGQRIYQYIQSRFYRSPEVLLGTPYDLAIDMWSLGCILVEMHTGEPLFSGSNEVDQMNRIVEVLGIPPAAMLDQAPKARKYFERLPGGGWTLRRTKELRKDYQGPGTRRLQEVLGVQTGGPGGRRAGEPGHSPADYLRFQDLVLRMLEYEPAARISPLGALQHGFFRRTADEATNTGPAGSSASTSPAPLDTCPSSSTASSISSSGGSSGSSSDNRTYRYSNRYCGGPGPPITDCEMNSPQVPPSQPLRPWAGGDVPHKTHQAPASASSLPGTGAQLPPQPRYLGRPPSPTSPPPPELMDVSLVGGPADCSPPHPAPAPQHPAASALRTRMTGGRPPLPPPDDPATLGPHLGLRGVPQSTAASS

| SMILES | IC50 (DYRK1B) | IC50 [1] | animals' weight over the course of the experiment [2] |
| --- | --- | --- | --- |
| O=C(Nc1nc2cc(C(F)(F)F)ccc2[nH]1)c1csc(-c2ccc3c(c2)CCO3)n1 [Compound 5, 2-(2,3-Dihydrobenzofuran-5-yl)-N-(5-(trifluoromethyl)-1H-benzo[d]imidazol-2-yl)thiazole-4-carboxamide] | 90.9 nM | 1000 to 3000 nM | essentially unchanged |
| O=C(Nc1nc2cc(C(=O)N3CCCC3)ccc2[nH]1)c1csc(-c2ccc3c(c2)CCO3)n1 [Compound 22, 2-(2,3-Dihydrobenzofuran-5-yl)-N-(5-(pyrrolidine-1-carbonyl)-1H-benzo[d]imidazol-2-yl)thiazole-4-carboxamide] | 0.852 nM | < 1000 nM | – |
| O=C(Nc1nc2cc(C(=O)N3CCOCC3)ccc2[nH]1)c1csc(-c2ccc3c(c2)CCO3)n1 [Compound 10, 2-(2,3-Dihydrobenzofuran-5-yl)-N-(5-(morpholine-4-carbonyl)-1H-benzo[d]imidazol-2-yl)thiazole-4-carboxamide] | 3.72 nM | < 1000 nM | – |
| O=C(Nc1ccccn1)c1csc(-c2ccc3c(c2)CCO3)n1 [Compound 17, 2-(2,3-Dihydrobenzofuran-5-yl)-N-(pyridin-2-yl)thiazole-4-carboxamide] | 29.4 nM | 3000 to 10000 nM | – |
| O=C(Nc1nnc(C(=O)N2CCOCC2)[nH]1)c1csc(-c2ccc3c(c2)CCO3)n1 [Compound 26, 2-(2,3-Dihydrobenzofuran-5-yl)-N-(5-(morpholine-4-carbonyl)-4H-1,2,4-triazol-3-yl)thiazole-4-carboxamide] | 85 nM | 3000 to 10000 nM | – |
| O=C(Nc1nc2cc(Cl)ccc2[nH]1)c1csc(-c2ccc3c(c2)CCO3)n1 [Compound 6, N-(5-Chloro-1H-benzo[d]imidazol-2-yl)-2-(2,3-dihydrobenzofuran-5-yl)thiazole-4-carboxamide] | 1.9 nM | 1000 to 3000 nM | – |
| CN1CCN(c2ccc3nc(NC(=O)c4csc(-c5ccc6c(c5)CCO6)n4)sc3c2)CC1 [Compound 41, 2-(2,3-Dihydrobenzofuran-5-yl)-N-(6-(4-methylpiperazin-1-yl)benzo[d]thiazol-2-yl)thiazole-4-carboxamide] | 19.5 nM | 3000 to 10000 nM | – |
| CCN1CCN(C(=O)c2ccc3[nH]c(NC(=O)c4csc(-c5ccc6c(c5)CCO6)n4)nc3c2)CC1 [Compound 47, 2-(2,3-Dihydrobenzofuran-5-yl)-N-(5-(4-ethylpiperazine-1-carbonyl)-1H-benzo[d]imidazol-2-yl)thiazole-4-carboxamide] | 2.17 nM | < 1000 nM | – |
| N#Cc1ccc2[nH]c(NC(=O)c3csc(-c4ccc5c(c4)CCO5)n3)nc2c1 [Compound 1, N-(5-Cyano-1H-benzo[d]imidazol-2-yl)-2-(2,3-dihydrobenzofuran-5-yl)thiazole-4-carboxamide] | 1.38 nM | 1000 to 3000 nM | – |
| O=C(Nc1ncc[nH]1)c1csc(-c2ccc3c(c2)CCO3)n1 [Compound 11, 2-(2,3-Dihydrobenzofuran-5-yl)-N-(1H-imidazol-2-yl)thiazole-4-carboxamide] | 66.8 nM | 1000 to 3000 nM | – |
| O=C(Nc1nc2cc(Cl)c(F)cc2[nH]1)c1csc(-c2ccc3c(c2)CCO3)n1 [Compound 2, N-(5-Chloro-6-fluoro-1H-benzo[d]imidazol-2-yl)-2-(2,3-dihydrobenzofuran-5-yl)thiazole-4-carboxamide] | 48.2 nM | 1000 to 3000 nM | – |
| O=C(Nc1nc2cc(OC(F)(F)F)ccc2[nH]1)c1csc(-c2ccc3c(c2)CCO3)n1 [Compound 14, 2-(2,3-Dihydrobenzofuran-5-yl)-N-(6-(trifluoromethoxy)-1H-benzo[d]imidazol-2-yl)thiazole-4-carboxamide] | 29.4 nM | 1000 to 3000 nM | – |
| O=C(NCC1CCCO1)c1ccc2[nH]c(NC(=O)c3csc(-c4ccc5c(c4)CCO5)n3)nc2c1 (stereo not drawn) [Compound 35, 2-(2,3-Dihydrobenzofuran-5-yl)-N-(5-(((tetrahydrofuran-2-yl)methyl)carbamoyl)-1H-benzo[d]imidazol-2-yl)thiazole-4-carboxamide] | < 0.5 nM | < 1000 nM | – |
| O=C(Nc1nnc(C(=O)N2CCCC2)[nH]1)c1csc(-c2ccc3c(c2)CCO3)n1 [Compound 28, 2-(2,3-Dihydrobenzofuran-5-yl)-N-(5-(pyrrolidine-1-carbonyl)-4H-1,2,4-triazol-3-yl)thiazole-4-carboxamide] | 47.1 nM | 3000 to 10000 nM | – |
| COCCNC(=O)c1ccc2[nH]c(NC(=O)c3csc(-c4ccc5c(c4)CCO5)n3)nc2c1 [Compound 23, 2-(2,3-Dihydrobenzofuran-5-yl)-N-(5-((2-methoxyethyl)carbamoyl)-1H-benzo[d]imidazol-2-yl)thiazole-4-carboxamide] | 0.699 nM | < 1000 nM | – |
| CNC(=O)c1n[nH]c(NC(=O)c2csc(-c3ccc4c(c3)CCO4)n2)n1 [Compound 19, 2-(2,3-Dihydrobenzofuran-5-yl)-N-(3-(methylcarbamoyl)-1H-1,2,4-triazol-5-yl)thiazole-4-carboxamide] | 9.68 nM | 1000 to 3000 nM | – |
| CN(C)C(=O)c1n[nH]c(NC(=O)c2csc(-c3ccc4c(c3)CCO4)n2)n1 [Compound 29, 2-(2,3-Dihydrobenzofuran-5-yl)-N-(5-(dimethylcarbamoyl)-4H-1,2,4-triazol-3-yl)thiazole-4-carboxamide] | 72 nM | 3000 to 10000 nM | – |
| O=C(Nc1nc2c(C(F)(F)F)cccc2[nH]1)c1csc(-c2ccc3c(c2)CCO3)n1 [Compound 12, 2-(2,3-Dihydrobenzofuran-5-yl)-N-(4-(trifluoromethyl)-1H-benzo[d]imidazol-2-yl)thiazole-4-carboxamide] | 156 nM | 3000 to 10000 nM | – |
| CCOC(=O)c1ccc2[nH]c(NC(=O)c3csc(-c4ccc5c(c4)CCO5)n3)nc2c1 [Compound 9, Ethyl 2-(2-(2,3-dihydrobenzofuran-5-yl)thiazole-4-carboxamido)-1H-benzo[d]imidazole-5-carboxylate] | 3.63 nM | < 1000 nM | – |
